US20130252930A1 (BIOMARIN PHARMACEUTICAL INC., priority 2010, published 2013)

Target: T1, CYP17 (human testicular microsome) (Homo sapiens, UniProt P05093)
T1 construct: using microsomal fraction from human testis (Celsis Cat #S00110) as the enzyme source; tissue Celsis S00110; host or cells: human testis microsomal fraction
T1 sequence (P05093 1-508): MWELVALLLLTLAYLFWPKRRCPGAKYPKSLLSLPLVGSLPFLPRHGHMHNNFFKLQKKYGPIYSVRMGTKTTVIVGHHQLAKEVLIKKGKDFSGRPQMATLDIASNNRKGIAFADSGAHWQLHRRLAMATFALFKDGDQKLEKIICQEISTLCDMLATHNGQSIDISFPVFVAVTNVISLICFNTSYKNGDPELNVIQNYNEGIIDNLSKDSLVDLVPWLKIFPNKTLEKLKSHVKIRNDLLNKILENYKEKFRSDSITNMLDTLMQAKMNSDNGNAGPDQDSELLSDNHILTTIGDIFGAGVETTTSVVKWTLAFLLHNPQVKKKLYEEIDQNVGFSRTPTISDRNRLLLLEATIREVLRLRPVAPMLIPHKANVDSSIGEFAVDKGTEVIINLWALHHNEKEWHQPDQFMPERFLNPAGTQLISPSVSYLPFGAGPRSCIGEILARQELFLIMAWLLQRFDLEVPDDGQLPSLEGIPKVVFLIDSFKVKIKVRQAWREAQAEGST
Test: CYP17 enzymatic assay (% inhibition at 1 nM) (Biological Example 12)
Format: biochemical
Conditions: compound at 1 nM, read-out: Biological Example No. 12: CYP17 enzymatic assay % inhibition at 1 nM

Compared with `C[C@]1(O)CC[C@@]2(C)C(CCC3C2CC[C@]2(C)C(c4cncc(Cl)c4)=CCC32)C1` (stereo partly drawn) [Compound 265, (3S,10S,13S)-17-(5-chloropyridin-3-yl)-3,10,13-trimethyl-2,3,4,5,6,7,8,9,10,11,12,13,14,15-tetradecahydro-1H-cyclopenta[a]phenanthren-3-ol], `C[C@@]1(O)CC[C@@]2(C)C(CCC3C2CC[C@]2(C)C(c4cncc(Cl)c4)=CCC32)C1` (stereo partly drawn) [Compound 266, (3R,10S,13S)-17-(5-chloropyridin-3-yl)-3,10,13-trimethyl-2,3,4,5,6,7,8,9,10,11,12,13,14,15-tetradecahydro-1H-cyclopenta[a]phenanthren-3-ol] is higher in inhibition at 0.001 µM: under 10% for the first, 10 to 50% for the second.

`C[C@]12CC[C@H]3[C@@H](CC=C4C[C@@H](O)CC[C@@]43C)C1=CC=C2c1cncc(Cl)c1` [Compound 273, (3S,10R,13S)-17-(5-chloropyridin-3-yl)-10,13-dimethyl-2,3,4,7,8,9,10,11,12,13-decahydro-1H-cyclopenta[a]phenanthren-3-ol] and `C[C@]12CC[C@H](O)CC1=CCC1C2CC[C@]2(C)C(c3cncc(C#N)c3)=CCC12` (stereo partly drawn) [Compound 275, 5-((3S,10R,13S)-3-hydroxy-10,13-dimethyl-2,3,4,7,8,9,10,11,12,13,14,15-dodecahydro-1H-cyclopenta[a]phenanthren-17-yl)nicotinonitrile] fall in the same range of inhibition at 0.001 µM: 10 to 50% for the first, 10 to 50% for the second.

First: Cc1cnc(F)c(C2=CCC3C4CC=C5C[C@@H](O)CC[C@]5(C)C4CC[C@]23C)c1 (stereo partly drawn) [Compound 277, (3S,10R,13S)-17-(2-fluoro-5-methylpyridin-3-yl)-10,13-dimethyl-2,3,4,7,8,9,10,11,12,13,14,15-dodecahydro-1H-cyclopenta[a]phenanthren-3-ol]
Second: Cc1cc(C2=CCC3C4CC=C5C[C@@H](O)CC[C@]5(C)C4CC[C@]23C)cnc1F (stereo partly drawn) [Compound 278, (3S,10R,13S)-17-(6-fluoro-5-methylpyridin-3-yl)-10,13-dimethyl-2,3,4,7,8,9,10,11,12,13,14,15-dodecahydro-1H-cyclopenta[a]phenanthren-3-ol]
The inhibition at 0.001 µM of the first is higher: 10 to 50% for the first, under 10% for the second.

`C[C@]12CC[C@H](O)CC1=CCC1C2CC[C@]2(C)C(c3cncc(NS(=O)(=O)C(F)(F)F)c3)=CCC12` (stereo partly drawn) [Compound 282, 1,1,1-trifluoro-N-(5-((3S,10R,13S)-3-hydroxy-10,13-dimethyl-2,3,4,7,8,9,10,11,12,13,14,15-dodecahydro-1H-cyclopenta[a]phenanthren-17-yl)pyridin-3-yl)methanesulfonamide] and `C[C@]12CC[C@H](O)CC1=CCC1C2CC[C@]2(C)C(c3cncc(NS(C)(=O)=O)c3)=CCC12` (stereo partly drawn) [Compound 284, N-(5-((3S,10R,13S)-3-hydroxy-10,13-dimethyl-2,3,4,7,8,9,10,11,12,13,14,15-dodecahydro-1H-cyclopenta[a]phenanthren-17-yl)pyridin-3-yl)methanesulfonamide] cannot be ordered by inhibition at 0.001 µM: under 10% for the first, under 10% for the second.

`CC1C(O)CC[C@@]2(C)C1CCC1C2CC[C@]2(C)C(c3cncc(F)c3)=CCC12` (stereo partly drawn) [Compound 305, (10R,13S)-17-(5-fluoropyridin-3-yl)-4,10,13-trimethyl-2,3,4,5,6,7,8,9,10,11,12,13,14,15-tetradecahydro-1H-cyclopenta[a]phenanthren-3-ol] and `CC1C(O)CC[C@@]2(C)C1CCC1C2CC[C@]2(C)C(c3cncc(C(F)F)c3)=CCC12` (stereo partly drawn) [Compound 306, (10R,13S)-17-(5-(difluoromethyl)pyridin-3-yl)-4,10,13-trimethyl-2,3,4,5,6,7,8,9,10,11,12,13,14,15-tetradecahydro-1H-cyclopenta[a]phenanthren-3-ol] cannot be ordered by inhibition at 0.001 µM: under 10% for the first, under 10% for the second.

Same assay, conditions: compound at 1 nM, read-out: CYP17 enzymatic assay % inhibition at 1 nM (Biological Example No. 12)

`CCNC(=O)NC1CC[C@@]2(C)C(=CC[C@@H]3[C@@H]2CC[C@]2(C)C(c4cncc(OC)c4)=CC[C@@H]32)C1` (stereo partly drawn) [Compound 234, 1-ethyl-3-((10R,13S)-17-(5-methoxypyridin-3-yl)-10,13-dimethyl-2,3,4,7,8,9,10,11,12,13,14,15-dodecahydro-1H-cyclopenta[a]phenanthren-3-yl)urea] and `C[C@]12CCC(NC(=O)c3nccs3)CC1=CCC1C2CC[C@]2(C)C(n3ccnc3)=CCC12` (stereo partly drawn) [Compound 241, N-((10R,13S)-17-(1H-imidazol-1-yl)-10,13-dimethyl-2,3,4,7,8,9,10,11,12,13,14,15-dodecahydro-1H-cyclopenta[a]phenanthren-3-yl)thiazole-2-carboxamide] fall in the same range of inhibition at 0.001 µM: 10 to 50% for the first, 10 to 50% for the second.

Compared with `CCNC(=O)N[C@@H]1CC[C@@]2(C)C(CC[C@@H]3[C@@H]2CC[C@]2(C)C(n4ccnc4)=CC[C@@H]32)C1` (stereo partly drawn) [Compound 247, 1-((3R,10S,13S)-17-(1H-imidazol-1-yl)-10,13-dimethyl-2,3,4,5,6,7,8,9,10,11,12,13,14,15-tetradecahydro-1H-cyclopenta[a]phenanthren-3-yl)-3-ethylurea], `C#C[C@@]1(O)CC[C@@]2(C)C(CCC3C2CC[C@]2(C)C(c4cccnc4)=CCC32)C1` (stereo partly drawn) [Compound 257, (3R,10S,13S)-3-ethynyl-10,13-dimethyl-17-(pyridin-3-yl)-2,3,4,5,6,7,8,9,10,11,12,13,14,15-tetradecahydro-1H-cyclopenta[a]phenanthren-3-ol] is lower in inhibition at 0.001 µM: over 50% for the first, 10 to 50% for the second.

First: C[C@]12CC[C@H]3[C@@H](CC(=O)C45CC4CC[C@]35C)C1=CC=C2c1cccnc1 (stereo partly drawn) [Compound 250, (3aR,5aS)-3a,5a-dimethyl-6-(pyridin-3-yl)-1a,2,3,3a,3b,4,5,5a,8b,9-decahydrocyclopenta[a]cyclopropa[2,3]cyclopenta[1,2-f]naphthalen-10(1H)-one]
Second: C[C@@]1(O)CC[C@@]2(C)C(CCC3C4=CC=C(c5cccnc5)[C@@]4(C)CCC32)C1 (stereo partly drawn) [Compound 260, (3R,10S,13S)-3,10,13-trimethyl-17-(pyridin-3-yl)-2,3,4,5,6,7,8,9,10,11,12,13-dodecahydro-1H-cyclopenta[a]phenanthren-3-ol]
The inhibition at 0.001 µM of the first is higher: over 50% for the first, under 10% for the second.

Compared with `C[C@]12CC[C@H]3[C@@H](CC(Nc4nccs4)C45CC4CC[C@]35C)[C@@H]1CC=C2c1cccnc1` (stereo partly drawn) [Compound 251, N-((3aR,5aS)-3a,5a-dimethyl-6-(pyridin-3-yl)-1,1a,2,3,3a,3b,4,5,5a,8,8a,8b,9,10-tetradecahydrocyclopenta[a]cyclopropa[2,3]cyclopenta[1,2-f]naphthalen-10-yl)thiazol-2-amine], `C[C@@]1(O)CC[C@@]2(C)C(CCC3C2CC[C@]2(C)C(c4cccnc4)=CCC32)C1` (stereo partly drawn) [Compound 253, (3R,10S,13S)-3,10,13-trimethyl-17-(pyridin-3-yl)-2,3,4,5,6,7,8,9,10,11,12,13,14,15-tetradecahydro-1H-cyclopenta[a]phenanthren-3-ol] is lower in inhibition at 0.001 µM: 10 to 50% for the first, under 10% for the second.

First: C[C@]12CC[C@@](O)(C3CC3)CC1CC[C@@H]1[C@@H]2CC[C@]2(C)C(c3cccnc3)=CC[C@@H]12 (stereo partly drawn) [Compound 252, (3S,10S,13S)-3-cyclopropyl-10,13-dimethyl-17-(pyridin-3-yl)-2,3,4,5,6,7,8,9,10,11,12,13,14,15-tetradecahydro-1H-cyclopenta[a]phenanthren-3-ol]
Second: CC1(C)C2=CC[C@@H]3[C@H](CC[C@]4(C)C(c5cccnc5)=CC[C@@H]34)[C@@]2(C)CCC1O (stereo partly drawn) [Compound 294, (10R,13S)-4,4,10,13-tetramethyl-17-(pyridin-3-yl)-2,3,4,7,8,9,10,11,12,13,14,15-dodecahydro-1H-cyclopenta[a]phenanthren-3-ol]
The inhibition at 0.001 µM of the first is higher: 10 to 50% for the first, under 10% for the second.

In the case of `CC1(C)C(=O)CC[C@@]2(C)C1=CC[C@@H]1[C@@H]2CC[C@]2(C)C(c3cccnc3)=CC[C@@H]12` [Compound 293, (10R,13S)-4,4,10,13-tetramethyl-17-(pyridin-3-yl)-4,7,8,9,10,11,12,13,14,15-decahydro-1H-cyclopenta[a]phenanthren-3(2H)-one], the inhibition at 0.001 µM is reported as under 10%.

Same assay, conditions: test compound at 1 nM, read-out: CYP17 enzymatic assay percent inhibition at 1 nM (Biological Example No. 12)

`C[C@@]1(O)CC[C@@]2(C)C(=CCC3C2CC[C@]2(C)C(c4cccnc4)=CCC32)C1` (stereo partly drawn) [Compound 267, (3R,10R,13S)-3,10,13-trimethyl-17-(pyridin-3-yl)-2,3,4,7,8,9,10,11,12,13,14,15-dodecahydro-1H-cyclopenta[a]phenanthren-3-ol] and `C[C@]1(O)CC[C@@]2(C)C(=CCC3C2CC[C@]2(C)C(c4cccnc4)=CCC32)C1` (stereo partly drawn) [Compound 268, (3S,10R,13S)-3,10,13-trimethyl-17-(pyridin-3-yl)-2,3,4,7,8,9,10,11,12,13,14,15-dodecahydro-1H-cyclopenta[a]phenanthren-3-ol] cannot be ordered by inhibition at 0.001 µM: over 50% for the first, over 50% for the second.

First: C[C@]1(O)CC[C@@]2(C)C(=CCC3C2CC[C@]2(C)C(c4cncc(F)c4)=CCC32)C1 (stereo partly drawn) [Compound 270, (3S,10R,13S)-17-(5-fluoropyridin-3-yl)-3,10,13-trimethyl-2,3,4,7,8,9,10,11,12,13,14,15-dodecahydro-1H-cyclopenta[a]phenanthren-3-ol]
Second: CC(=O)Nc1cncc(C2=CCC3C4CC=C5C[C@@H](O)CC[C@]5(C)C4CC[C@]23C)c1 (stereo partly drawn) [Compound 281, N-(5-((3S,10R,13S)-3-hydroxy-10,13-dimethyl-2,3,4,7,8,9,10,11,12,13,14,15-dodecahydro-1H-cyclopenta[a]phenanthren-17-yl)pyridin-3-yl)acetamide]
The inhibition at 0.001 µM of the first is higher: 10 to 50% for the first, under 10% for the second.
